What was measured:
[1] = Conversion (release) of prodrug salts to parent compound in mouse plasma; format: in vitro ADME; details: mouse, plasma, 37 °C, read-out: Release rate (conversion to Compound 1)
Method: (§1) Pharmaceutically acceptable salts of guaiane-type sesquiterpene lactone derivatives were selected and evaluated for their conversion rates to Compound 1 and Compound 83 in plasma and HEPES buffer, with results shown in Tables 2-1, 2-2, 3-1, and 3-2.
Plasma Preparation: Collect mouse plasma into an EP tube pre-loaded with sodium heparin, centrifuge at 8000 rpm for 10 minutes at 4° C., and then collect the supernatant.
(§2) Sample Analysis: Dissolve 0.6 mg of the compound in 250 μL of deionized water separately. Add 250 μL of mouse serum or HEPES 7.4 solution to the sample, incubate at a constant temperature of 37° C., and collect samples at different time points. Pipette 20 μL of the sample to an EP tube, add 60 μL of methanol, vortex to mix thoroughly, and centrifuge at 12,000 rpm at 4° C. for 10 min. At 1 h, 2 h, 4 h, 8 h, and 12 h respectively, collect the supernatant for HPLC analysis. Inject 10 μL of sample and record the corresponding peak areas. Chromatographic conditions: Hanbang C18 column (4.6×250 mm, 5 μm); mobile phase: acetonitrile: […] ammonium formate solution=60:40; flow rate 1.0 mL/min; detection wavelength 210 nm; column temperature 30° C.

[2] = Conversion (release) of prodrug salts to parent compound in HEPES buffer pH 7.4; format: in vitro ADME; details: hepes buffer, pH 7.4, HEPES pH 7.4, 37 °C, read-out: Release rate (conversion to Compound 1)
Method: as §1
Experimental Method: Preparation of HEPES 7.4 Solution: Dissolve 1.6 g NaCl, 0.074 g KCl, 0.027 g Na2HPO4, 0.2 g glucose, and 1 g 4-(2-Hydroxyethyl)piperazine-1-ethanesulfonic acid (HEPES) solution in 90 mL distilled water. Adjust the pH to 7.4 using 0.5 M NaOH, then dilute to a final volume 100 mL with distilled water.
as §2

T cells / MDSCs = assay: Promotion of T cell proliferation in a co-culture model of MDSCs and T cells; format: cell-based, mouse; details: for activation at 1 µM: Mus musculus, T-cell, 12 h, read-out: T-cell proliferation rate (%), 1 μM, MDSCs treated 12 hours, co-culture of MDSCs and T cells, compared to the control group
Method: Under sterile conditions, the tibia was removed, both ends of the bone were cut, and bone marrow was repeatedly flushed into a 15 mL centrifuge tube using a 1 mL syringe filled with culture medium. Centrifuge at 1600 rpm for 5 min to collect bone marrow cells. […] The spleen cell suspension was then transferred into a 15 mL centrifuge tube. Centrifuge at 1600 rpm for 5 min to collect T cells. Wash twice with 1×PBS. Resuspend the centrifuged T cells in 1 mL PBS and add 1 mL of 10 μM CFDA-SE solution. Incubate at room temperature for 8 min. […] After drug administration, collect MDSC cells into centrifuge tubes. Centrifuge at 1600 rpm for 5 min, remove supernatant, resuspend in 1 mL fresh medium, and plate. Add 1 mL stimulated activated T cells (1:1 ratio) for 48 h co-culture. After incubation, collect cells into centrifuge tubes, wash twice with PBS, and incubate with Fc antibody at room temperature in the dark for 10 min. Add CD3-labeled flow cytometry antibody and incubate at 4° C. in the dark for 30 min. After incubation, wash cells with PBS, resuspend in 300 μL PBS, and analyze by flow cytometry.

[3] = Water solubility testing of compounds (HPLC); details: deionized water, 37 °C

Row | Structure (SMILES) | metabolised at 1 h [1] [%] | metabolised at 2 h [1] [%] | metabolised at 4 h [1] [%] | metabolised at 8 h [1] [%] | metabolised at 12 h [1] [%] | degraded at 1 h [2] [%] | degraded at 2 h [2] [%] | degraded at 4 h [2] [%] | degraded at 8 h [2] [%] | degraded at 12 h [2] [%] | T-cell proliferation rate (%) (T cells / MDSCs; 1 μM, MDSCs treated 12 hours, co-culture of MDSCs and T cells, compared to the control group) | Water-solubility [3] [mg/mL] | activation at 1 µM (T cells / MDSCs) [%]
1 | CCOC(=O)[C@@H]1CCCN1C[C@@H]1C(=O)O[C@H]2[C@H]1CC[C@@]1(C)C[C@]13CC[C@@](C)(O)[C@H]23 [Compound 23] | 7.2 | 14.3 | 26.8 | 45.1 | 52.8 | 6.2 | 14.3 | 26.8 | 41.1 | 52.8 | + (T-cell proliferation rate within the 0-20% range compared to the control group) | 362.3 | –
2 | C[C@@]12CC[C@@H]3[C@H](OC(=O)[C@H]3CN3CCOCC3)[C@@H]3[C@]1(CC[C@@]3(C)O)C2 [Compound 6] | – | – | – | – | – | – | – | – | – | – | – | 0.668 | 0 to 20
3 | C[C@@]12CC[C@@H]3[C@H](OC(=O)[C@H]3CN3CCCC3)[C@@H]3[C@]1(CC[C@@]3(C)O)C2 [Compound 3] | – | – | – | – | – | – | – | – | – | – | – | 1.305 | 20 to 40
4 | C[C@@]12CC[C@@H]3[C@H](OC(=O)[C@H]3CN3CCCCC3)[C@@H]3[C@]1(CC[C@@]3(C)O)C2 [Compound 5] | – | – | – | – | – | – | – | – | – | – | – | 0.730 | 20 to 40
5 | C[C@@]12CC[C@@H]3[C@H](OC(=O)[C@H]3CN3CCC3)[C@@H]3[C@]1(CC[C@@]3(C)O)C2 [Compound 33] | 6.9 | 14.8 | 26 | 42.8 | 50.7 | 6.9 | 15.8 | 26 | 41.8 | 51.1 | – | 145.5 | –
6 | C[C@@]12CC[C@@H]3[C@H](OC(=O)[C@H]3CN3CCCCCCC3)[C@@H]3[C@]1(CC[C@@]3(C)O)C2 [Compound 38] | 6.1 | 14.5 | 25.4 | 41.4 | 49.7 | 6.9 | 14.8 | 25.4 | 41.4 | 50.7 | – | 250.9 | –
7 | CC(C)N(C[C@@H]1C(=O)O[C@H]2[C@H]1CC[C@@]1(C)C[C@]13CC[C@@](C)(O)[C@H]23)C(C)C [Compound 31] | 6.5 | 13.9 | 24.4 | 40.2 | 48.5 | 6.7 | 14 | 23 | 41.2 | 49.5 | – | 254.6 | –
8 | CCCN(CCC)C[C@@H]1C(=O)O[C@H]2[C@H]1CC[C@@]1(C)C[C@]13CC[C@@](C)(O)[C@H]23 [Compound 29] | 6.8 | 14.2 | 24.6 | 40.2 | 49 | 6.8 | 14.2 | 24.6 | 40.2 | 49.8 | – | 289.5 | –
9 | C[C@@]12CC[C@@H]3[C@H](OC(=O)[C@H]3CN3CCCCC3)[C@@H]3[C@]1(CC[C@@]3(C)O)C2 [Compound 24] | 7.7 | 17.1 | 27.7 | 47.8 | 57.9 | 6.8 | 15.1 | 26.7 | 42.8 | 54 | – | 300.5 | –

Reference: patent publication US20260315434A1, “USE OF GUAIACOL SESQUITERPENE LACTONE DERIVATIVES” (NANJING UNIVERSITY OF CHINESE MEDICINE, priority 2023, published 2026)
